Values of other authors in patent US20250325473A1, “COLLAGEN-IMPREGNATED DEVICES AND METHODS FOR TREATMENT OF CANCER” (COLLAGEN MATRIX, INC., priority 2022, published 2025).
Square brackets hold non-standard residues; d marks the D form. Ends that are not written are not given here. Hyp = O=C(O)[C@@H]1C[C@@H](O)CN1

Tests used:
Design in all cases: key: A plus sign (+) indicates a response similar in peptides II-22, III-23, or GPS-GFO (control); a minus sign (−) Indicates less than 20% of control; +/−: +/ − indicates 20-80% of control
His-DDR2 or DS2-Fc = settings: binding to His-DDR2 or DS2-Fc, response relative to control peptides II-22, III-23 or GPS-GFO; guest sequences flanked by (GPP)
His-DDR2 or DS2-Fc, sequence (Q16832 30-185 limits assumed): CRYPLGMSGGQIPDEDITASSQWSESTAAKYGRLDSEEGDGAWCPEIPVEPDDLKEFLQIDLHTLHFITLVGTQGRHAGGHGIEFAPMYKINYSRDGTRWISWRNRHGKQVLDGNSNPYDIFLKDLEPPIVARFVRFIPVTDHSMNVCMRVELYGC

DDR1-Fc or DDR1-Fc2 = settings: binding to DDR1-Fc or DDR1-Fc2, response relative to control peptides II-22, III-23 or GPS-GFO; guest sequences flanked by (GPP)
DDR1-Fc or DDR1-Fc2, sequence (Q08345 31-185 limits assumed): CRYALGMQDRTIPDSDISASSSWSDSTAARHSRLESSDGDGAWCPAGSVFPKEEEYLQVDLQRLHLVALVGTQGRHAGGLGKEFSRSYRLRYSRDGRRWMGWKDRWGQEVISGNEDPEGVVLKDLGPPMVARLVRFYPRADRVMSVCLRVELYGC

DDR2-Fc or DDR2-Fc2 = settings: binding to DDR2-Fc or DDR2-Fc2, response relative to control peptides II-22, III-23 or GPS-GFO; includes data from Konitsiotis et al. 2008
DDR2-Fc or DDR2-Fc2, sequence (Q16832 30-185 limits assumed): as the sequence (Q16832 30-185 limits assumed) above

Substance | DDR2 binding (His-DDR2 or DS2-Fc) | DDR1 binding (DDR1-Fc or DDR1-Fc2) | DDR2 binding (DDR2-Fc or DDR2-Fc2)
(GAP) -GPRGQOGVMGFO-(GAP) (GAPGAPGAPGAPGAPGPRGQ[Hyp]GVMGF[Hyp]GAPGAPGAPGAPGAP; not fully specified) [GAP-GPR-GFO, non-helical peptide flanked by (GAP) instead of (GPP)] | +/− (+/ − indicates 20-80% of control) | − (a minus sign (−) indicates less than 10% of control) | − (a minus sign (−) indicates less than 10% of control)
GAKGSAGAOGIAGAOGFOGPRGPOGPQ (GAKGSAGA[Hyp]GIAGA[Hyp]GF[Hyp]GPRGP[Hyp]GPQ; not fully specified) [II- ? 3, label partly illegible] |  | − (a minus sign (−) indicates less than 10% of control) | +
GAOGEDGROGPOGPQGARGQOGVMGFO (GA[Hyp]GEDGR[Hyp]GP[Hyp]GPQGARGQ[Hyp]GVMGF[Hyp]; not fully specified) [II-22] | + | + | +
GAOGPLGIAGITGARGLAGPOGMOGPR (GA[Hyp]GPLGIAGITGARGLAGP[Hyp]GM[Hyp]GPR; not fully specified) [III-44] |  | − (a minus sign (−) indicates less than 10% of control) | +
GARGAQGPOGATGFOGAAGRVGPOGSN (GARGAQGP[Hyp]GATGF[Hyp]GAAGRVGP[Hyp]GSN; not fully specified) [II- ? 9, label partly illegible] |  | +/− ((+/− indicates 30-80% of control) | +/− ((+/− indicates 30-80% of control)
GARGEOGNIGFO (GARGE[Hyp]GNIGF[Hyp]; not fully specified) [CI-alpha2] | − (a minus sign (−) Indicates less than 20% of control) | +/− ((+/− indicates 30-80% of control) | (+)/− ((+)/− indicates 20-30% of control)
GARGFOGTOGLOGVKGRRGYOGLDGAK [II-5] |  | − (a minus sign (−) indicates less than 10% of control) | +/− ((+/− indicates 30-80% of control)
GARGQAGVMGFO (GARGQAGVMGF[Hyp]; not fully specified) [CI-alpha1] | + | + | +
GARGQOGVMGFO (GARGQ[Hyp]GVMGF[Hyp]; not fully specified) [GAR-GFO] |  | + | 
GASGDRGPOGPVGPOGLTGPAGEOGRE [II-46] |  | +/− ((+/− indicates 30-80% of control) | − (a minus sign (−) indicates less than 10% of control)
GERGLOGPOGIKGPAGIDGFOGMKGHR [III-5] |  | − (a minus sign (−) indicates less than 10% of control) | +
GFOGER [GPOGER] | − (a minus sign (−) Indicates less than 20% of control) | − (a minus sign (−) indicates less than 10% of control) | − (a minus sign (−) indicates less than 10% of control)
GFOGPK (GF[Hyp]GPK; not fully specified) | − (a minus sign (−) Indicates less than 20% of control) | − (a minus sign (−) indicates less than 10% of control) | − (a minus sign (−) indicates less than 10% of control)
GLAGRQGIVGLDGQRGERGFOGLOGPS [II-44] |  | − (a minus sign (−) indicates less than 10% of control) | +
GPOGPQGVKGERGSDGGDGAAGFOGAR [III- ? 9] |  | − (a minus sign (−) indicates less than 10% of control) | +
GPOGPSGPRGQOGVMGFOGPKGNDGAO (GP[Hyp]GPSGPRGQ[Hyp]GVMGF[Hyp]GPKGNDGA[Hyp]; not fully specified) [III-23] | + | + | +

Substance | DDR2 binding (His-DDR2 or DS2-Fc) | DDR1 binding (DDR1-Fc or DDR1-Fc2) | DDR2 binding (DDR2-Fc or DDR2-Fc2)
GPRGQOGVMGFO [GPR-GFO] | + | + | +
GPRGQOGVMGFOGPK (GPRGQ[Hyp]GVMGF[Hyp]GPK; not fully specified) [GPR-GPK] | − (a minus sign (−) Indicates less than 20% of control) | (+)/− ((+)/− indicates 20-30% of control) | +
GPSGARGQOGVMGFO (GPSGARGQ[Hyp]GVMGF[Hyp]; not fully specified) [GPS-GFO-5A] | − (a minus sign (−) Indicates less than 20% of control) | + | +
GPSGPAGQOGVMGFO (GPSGPAGQ[Hyp]GVMGF[Hyp]; not fully specified) [GPS-GFO-6A] | + | +/− ((+/− indicates 30-80% of control) | +/− ((+/− indicates 30-80% of control)
GPSGPRGAOGVMGFO (GPSGPRGA[Hyp]GVMGF[Hyp]; not fully specified) [GPS-GFO-8A] | +/− (+/ − indicates 20-80% of control) | + | +
GPSGPRGQAGVMGFO (GPSGPRGQAGVMGF[Hyp]; not fully specified) [GPS-GFO-9A] | + | + | +
GPSGPRGQO (GPSGPRGQ[Hyp]; not fully specified) [GPS-GQO] | − (a minus sign (−) Indicates less than 20% of control) | − (a minus sign (−) indicates less than 10% of control) | − (a minus sign (−) indicates less than 10% of control)
GPSGPRGQOGAMGFO (GPSGPRGQ[Hyp]GAMGF[Hyp]; not fully specified) [GPS-GFO-11A] | + | + | +
GPSGPRGQOGVAGFO (GPSGPRGQ[Hyp]GVAGF[Hyp]; not fully specified) [GPS-GFO-12A] | + | − (a minus sign (−) indicates less than 10% of control) | (+)/− ((+)/− indicates 20-30% of control)
GPSGPRGQOGVM (GPSGPRGQ[Hyp]GVM; not fully specified) [GPS-GVN] | − (a minus sign (−) Indicates less than 20% of control) | − (a minus sign (−) indicates less than 10% of control) | − (a minus sign (−) indicates less than 10% of control)
GPSGPRGQOGVMGAO (GPSGPRGQ[Hyp]GVMGA[Hyp]; not fully specified) [GPS-GFO-14A] | − (a minus sign (−) Indicates less than 20% of control) | − (a minus sign (−) indicates less than 10% of control) | − (a minus sign (−) indicates less than 10% of control)
GPSGPRGQOGVMGFA (GPSGPRGQ[Hyp]GVMGFA; not fully specified) [GPS-CFO-15A] | +/− (+/ − indicates 20-80% of control) | (+)/− ((+)/− indicates 20-30% of control) | +/− ((+/− indicates 30-80% of control)
GPSGPRGQOGVMGFO [GPS-GFO] | + | + | +
GQOGVMGFO (GQ[Hyp]GVMGF[Hyp]; not fully specified) [GQO-GFO] | + | +/− ((+/− indicates 30-80% of control) | +/− ((+/− indicates 30-80% of control)
GQOGVMGFOGPKGANGEOGKAGEKGLO (GQ[Hyp]GVMGF[Hyp]GPKGANGE[Hyp]GKAGEKGL[Hyp]; not fully specified) [II-23] | + | − (a minus sign (−) indicates less than 10% of control) | +
GVMGFO (GVMGF[Hyp]; not fully specified) | +/− (+/ − indicates 20-80% of control) | +/− ((+/− indicates 30-80% of control) | +/− ((+/− indicates 30-80% of control)
